Non-standard residues stand in square brackets, D forms with d. Residues, ends and D or L forms follow the SMILES beside them. *: point of attachment. Acetyl(2-naphthyl) = O=C(Cc1ccc2ccccc2c1)*; Ahx = NCCCCCC(=O)O

Here are results for 8 compounds from paper PMC10891067, “A co-assembly platform engaging macrophage scavenger receptor A for lysosome-targeting protein degradation” (Nature Communications, 2024).

Test [1] relates to IMQ-induced psoriasis-like mouse model. The experiment in a line: IMQ-induced psoriasis mouse model: acanthosis (H&E of back skin). In kind it is in vivo. Particulars: day 7, H&E of back skin, IMQ psoriasis BALB/c mice, i.p. 7 days: fm-17Abp 15, fm-SRAL 22, 17A-Lytaca 15+22, control-Lytaca 12+22 mg/kg/day, MTX 1 mg/kg/twice day. How it is done: 8 to10-week-old female BALB/c mice were purchased from Peking University Health Science Center Department of Laboratory Animal Science. They were randomly divided into seven groups. Vehicle group (PBS administration) was treated with 62.5 mg/day of Vaseline cream while the other six groups were treated with 62.5 mg/day of 5% IMQ cream (Sichuan Med-shine Pharmaceuticals) on the shaved back skin (2 cm × 3 cm) of mice (days 1–7).
The psoriasis area and severity index (PASI) consists of measurements of skin erythema, scale, and thickness. They were scored independently on a scale of 0–4: 0, none; 1, slight; 2, moderate; 3, marked; 4, very marked. The cumulative PASI score was obtained by adding the 3 index scores (scores of 0–12). The thickness of the mouse skin was measured using a micrometer, and the average value was measured three times a day. For histopathology analysis, tissues from the euthanized animals were fixed in formalin and embedded in paraffin. Sections (5 μm thickness) were stained with H&E.

Another test deals with T1, IL-17A (Mus musculus, UniProt Q62386).
T1 sequence (Q62386 26-158): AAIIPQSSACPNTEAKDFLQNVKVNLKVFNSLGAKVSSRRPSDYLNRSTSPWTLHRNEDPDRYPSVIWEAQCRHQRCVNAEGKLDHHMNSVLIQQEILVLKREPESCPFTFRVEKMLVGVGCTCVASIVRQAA
Briefly: IL-17A protein level in skin lesion (ELISA). Format: in vivo. To be noted: i.p. 7 days: fm-17Abp 15, fm-SRAL 22, 17A-Lytaca 15+22, control-Lytaca 12+22 mg/kg/day, MTX 1 mg/kg/twice day. As to the method: Plasma cytokine concentrations of IL-17A, IL-6, IL-22, and CCL-20 were determined by a commercial ELISA kit (Dogesce). For skin IL-17A detection, the back skin of mice was isolated and triturated with a grinder (Tiss-24, Jing Xin). Cell debris was precipitated via centrifugation (1000×g, 4 °C, 15 min), and IL-17A was measured in the supernatant using the IL-17A ELISA kit (Dogesce) and normalized to the total protein concentration, which was determined via BCA assay.
On the technique in general: An ELISA detects its analyte on a solid surface through an enzyme-linked reagent.

The next test relates to RAW264.7 cells. Briefly: IL-17A uptake mechanism: endocytic pathway inhibitors, 4 °C, NaN3. Format: cell-based. To be noted: RAW264.7, 0.5 μg/ml IL-17A + 50 μM mixed fi-SRAL and fi-17Abp, 6 h; NaN3 100 mM, CPZ 3 μg/ml, Me-β-CD 0.5 mM, EIPA 20 μM. As to the method: To evaluate the uptake mechanism of IL-17A, RAW264.7 cells were pretreated with various inhibitors for 30 min at 37 °C: chlorpromazine (clathrin-mediated endocytosis inhibitor, 3 μg/ml), Me-β-cyclodextrin (0.5 mM, lipid rafting pathway inhibitors), EIPA (20 μM, pinocytosis inhibitor). In addition, the cells were cultured at 4 °C or treated with NaN3 (100 mM) to assess the effect of energy on IL-17A uptake. After that, the cells were cultured with fresh medium containing inhibitors at the same concentrations, 50 μM 17Abp and SRAL mixture, and 0.5 μg/ml IL-17A for 6 h. The uptake of the IL-17A by cells was analyzed through flow cytometry according to the procedure mentioned above.
Supplementary Fig. 5 Uptake of IL-17A by macrophages is an energy-dependent process involving several endocytosis pathways. a) Uptake of IL-17A in RAW264.7 cells incubated at 4 °C or pretreated with 100 mM NaN3 for 0.5 h followed by the addition of 0.5 μg/ml IL-17A and 50 μM mixed fi-SRAL and fi-17Abp peptides for 6 h. b) Uptake of IL-17A in RAW264.7 cells incubated with 0.5 mM Me-β-CD (lipid rafting pathway inhibitor), 20 μM EIPA (pinocytosis inhibitor) or 3 μg/ml CPZ (clathrin-endocytosis inhibitor) for 0.5 h followed by the addition of 0.5 μg/ml IL-17A and 50 μM mixed fi-SRAL and fi-17Abp peptides for 6 h. MFI was determined by flow cytometry and the relative MFI was normalized to the control group. Data are presented as the mean ± SD, and error bars represent the standard deviation of biological replicates (n = 3). P values were determined by one-way ANOVA with Tukey’s multiple comparisons test. […]

In the next test the target is T2, SR-A (Mus musculus, UniProt P30204).
T2 construct: endogenous in cells; host or cells: RAW264.7
T2 sequence (P30204 1-458): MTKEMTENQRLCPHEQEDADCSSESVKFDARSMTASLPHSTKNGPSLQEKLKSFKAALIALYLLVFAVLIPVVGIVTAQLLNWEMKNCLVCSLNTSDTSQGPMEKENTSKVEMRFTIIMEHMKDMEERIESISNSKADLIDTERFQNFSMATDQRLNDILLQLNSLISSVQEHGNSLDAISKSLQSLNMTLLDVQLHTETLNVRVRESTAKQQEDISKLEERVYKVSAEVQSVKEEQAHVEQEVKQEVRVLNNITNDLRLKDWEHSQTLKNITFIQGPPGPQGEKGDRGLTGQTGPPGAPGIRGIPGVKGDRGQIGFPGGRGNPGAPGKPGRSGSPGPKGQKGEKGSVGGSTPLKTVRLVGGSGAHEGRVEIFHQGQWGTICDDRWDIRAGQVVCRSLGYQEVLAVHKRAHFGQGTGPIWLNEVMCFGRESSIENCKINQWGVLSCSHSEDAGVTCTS
Briefly: SR-A inhibition assay with poly I / poly C (IL-17A uptake). To be noted: RAW264.7, with exogenous IL-17A and the peptide mixture. In kind it is cell-based. How it is done: To verify the involvement of SR-A in the IL-17A endocytosis, RAW264.7 cells were treated with the SR-A inhibitor Poly I or the control Poly C at the indicated concentration together with the 50 μM 17Abp and SRAL mixture and 0.5 μg/ml IL-17A for 6 h. Then, flow cytometry analysis was used to measure the intracellular IL-17A level according to the procedure mentioned above.

The target in another test is T3, PD-L1 (Mus musculus, UniProt Q9EP73).
T3 construct: endogenous in cells; host or cells: RAW264.7 (WT and SR-A-KO)
T3 sequence (Q9EP73 19-290): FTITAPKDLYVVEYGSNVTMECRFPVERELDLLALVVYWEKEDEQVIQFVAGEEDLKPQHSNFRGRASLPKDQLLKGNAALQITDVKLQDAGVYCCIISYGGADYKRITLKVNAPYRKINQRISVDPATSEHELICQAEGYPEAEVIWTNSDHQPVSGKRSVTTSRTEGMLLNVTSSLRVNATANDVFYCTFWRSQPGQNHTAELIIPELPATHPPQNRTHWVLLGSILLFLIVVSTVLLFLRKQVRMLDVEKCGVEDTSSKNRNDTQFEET
Briefly: Western blot of PD-L1 in RAW264.7 cells. In kind it is cell-based. Particulars: Suppl Fig.18c, 50 μM, PBS = 100. How it is done:
Proteins were extracted using RIPA buffer (Beyotime) supplemented with protease inhibitors (Beyotime) and quantified using the BCA assay (Solarbio). SDS–PAGE was performed to separate proteins, which were then transferred to PVDF membranes (EMD Millipore). Next, the membranes were blocked in 5% fat-free milk for 2 h and incubated with primary antibodies at 4 °C overnight. including Rabbit anti-GAPDH antibody (1:5000, ab181602, Abcam), Mouse anti-GAPDH antibody (1:5000, 60004-1-Ig, Proteintech), Rabbit anti-CD2O4 antibody (1:1000, ab151707, Abcam), Mouse anti-PD-L1antibody (1:1000, 66248-1-Ig, Proteintech), Mouse anti-His-Tag antibody (1:2000, CW0286, CoWin Biosciences), Phospho-p44/42 MAPK (Erk1/2) (Thr202/Tyr204) (D13.14.4E) XP® Rabbit mAb, (1:1000, 4370T, Cell Signaling Technology), p44/42 MAPK (Erk1/2) (137F5) Rabbit mAb (1:1000 4695T, Cell Signaling Technology). After washing the membranes three times, secondary antibodies including HRP-conjugated Affinipure Goat Anti-Mouse IgG(H + L) (1:5000, SA00001-1, Proteintech), HRP-conjugated Affinipure Goat Anti-Rabbit IgG(H + L) (1:5000, SA00001-2, Proteintech) labeled with horseradish peroxidase (Proteintech) were applied at room temperature for 2 h and the immunoreactivity was visualized by supper ECL western blotting substrate (Coolaber). The densitometric analysis was performed by ImageJ software (NIH).
On the technique in general: Immunoblotting shows a protein as a band on a membrane.

In the case of `CN(Cc1cnc2nc(N)nc(N)c2n1)c1ccc(C(=O)N[C@@H](CCC(=O)O)C(=O)O)cc1` [MTX, methotrexate], the Acanthosis in test [1] (animal 1 of n = 5) amounted to 66.3 μm; in test [1] (animal 2 of n = 5) it was 89.8 μm; in test [1] (animal 3 of n = 5), 73.7 μm; in test [1] (animal 4 of n = 5), 59.4 μm; in test [1] (animal 5 of n = 5), 85.7 μm. For the same compound, the “Skin IL-17A” value was determined as 60.0538 pg/mg protein on IL-17A (day 7, animal 1 of n = 5, IMQ psoriasis BALB/c mice); 102.2787 pg/mg protein at IL-17A (day 7, animal 2 of n = 5, IMQ psoriasis BALB/c mice); 103.0959 pg/mg protein at IL-17A (day 7, animal 3 of n = 5, IMQ psoriasis BALB/c mice); 57.7792 pg/mg protein at IL-17A (day 7, animal 4 of n = 5, IMQ psoriasis BALB/c mice); 78.3380 pg/mg protein at IL-17A (day 7, animal 5 of n = 5, IMQ psoriasis BALB/c mice).
`CN(C)CCCN1c2ccccc2Sc2ccc(Cl)cc21` [CPZ, chlorpromazine]: the “Effect of endocytosis/energy inhibitor on IL-17A uptake (in words)” value (from here on “Effect of endocytosis/energy inhibitor”) in the test with RAW264.7 cells is reported as “significant decreases in cellular fluorescence”.
As to polyinosinic acid [Poly I], on SR-A, the “Effect on IL-17A uptake efficiency (in words)” value is “concentration-dependent inhibition”.
Still for that read-out and setting: the value for polycytidylic acid [Poly C] was “no discernible impact”.
With methyl-β-cyclodextrin [Me-β-CD], in the test on RAW264.7 cells, the “Effect of endocytosis/energy inhibitor” value was “significant decreases in cellular fluorescence”.
On the same count and under the same terms, next, `CCN(c1nc(N)c(C(=O)N=C(N)N)nc1Cl)C(C)C` [EIPA, 5-(N-ethyl-N-isopropyl)-amiloride]: “decreased IL-17A uptake”.
As for `[N-]=[N+]=[N-].[Na+]` [NaN3], the “Effect of endocytosis/energy inhibitor” value with RAW264.7 cells was “significantly reduced intracellular fluorescence signals of IL-17A”.
For the compound `C[C@H](NC(=O)[C@H](CCC(=O)O)NC(=O)[C@H](C)NC(=O)[C@H](CCC(=O)O)NC(=O)[C@H](C)NC(=O)[C@H](CCC(=O)O)NC(=O)[C@H](C)NC(=O)[C@H](CCC(=O)O)NC(=O)[C@H](C)NC(=O)[C@H](CCC(=O)O)NC(=O)[C@H](C)NC(=O)[C@H](CCC(=O)O)NC(=O)[C@H](C)NC(=O)[C@H](CCC(=O)O)NC(=O)[C@H](C)NC(=O)[C@H](CCC(=O)O)NC(=O)[C@H](C)NC(=O)[C@H](CCC(=O)O)NC(=O)[C@H](C)NC(=O)[C@H](CCC(=O)O)NC(=O)[C@H](C)NC(=O)[C@H](CCC(=O)O)NC(=O)[C@H](C)NC(=O)[C@H](CCC(=O)O)NC(=O)[C@H](C)NC(=O)[C@H](CCC(=O)O)NC(=O)[C@H](C)NC(=O)[C@H](CCC(=O)O)NC(=O)[C@H](C)NC(=O)[C@H](CCC(=O)O)NC(=O)CCCCCNC(=O)[C@H](Cc1ccccc1)NC(=O)[C@H](Cc1ccccc1)NC(=O)Cc1ccc2ccccc2c1)C(N)=O` [nf-SRAL] ({Acetyl(2-naphthyl)}-FF[Ahx]EAEAEAEAEAEAEAEAEAEAEAEAEAEAEA-NH2), the “Relative intensity of PD-L1” value on PD-L1 (replicate 1) is 96; at PD-L1 (replicate 2), 106; on PD-L1 (replicate 3), 102.
